Consider 1 substance from patent US9474765B2, “Composition for lipolysis, containing phosphatidylcholine, and preparation method therefor” (AMI Pharm Co., Ltd., priority 2013, dated 2016).

In one series the test system is Albino C57BL/6 mice. Nature of the series: Determination of tissue necrosis through visual inspection after subcutaneous abdominal injection. Format: in vivo. As to conditions: 8 days after administration; for Tissue necrosis at the injected area (visual inspection): 0.2 ml s.c. into abdomen of obese mice, FIG. 8. As for the experimental part: (§1) Albino C57BL/6 mice (4 weeks old) were fed with high fat diet (Research diet, 60% kcal lipid) to induce a high degree of obesity. Then, after 24 and 48 hours, 0.2 ml of saline solution (negative control group), injection compositions of Table 1, Lipobean, 2.5% DC were injected subcutaneously into the abdomen of the mice, respectively. Eight (8) days after the administration was completed, the mice were sacrificed.
Visual inspection was conducted on the subcutaneously injected areas of the sacrificed mice.

Series [1] relates to Myeloperoxidase (MPO) activity. The experiment in a line: MPO Activity Colorimetric Assay on hind feet tissue samples. Format: in vivo, mice. As to conditions: FIG. 4; comparison of groups. On the procedure:
Myeloperoxidase (MPO) activity was measured by using MPO Activity Colorimetric Assay Kit (BioVision, USA). The tissue samples of the hind feet of test animals in phosphatidylcholine (PC)-containing injection-administered test groups and sodium deoxycholate (DC)-administered group in various concentrations (PC 2.5%, PC 5%, DC 2.5%, PC 5%+DC 2.5%) were mixed in 4 times MPO assay buffer and centrifuged at 12,000 rpm for 10 minutes, followed by diluting each tissue sample with 25 μl of MPO assay buffer, respectively. The diluted samples were placed into standard, background sample of 96-well plate, while dividing reaction mix and background into their corresponding wells and cultivating at 25° C. for 120 minutes. Then, stop mix was added and left for 10 minutes. Subsequently, TNB reagent was added to equalize the total amount of each well to 150 μl, followed by sun blocking with aluminum foils and 10 minutes later measuring absorption value at 412 nm.

Series [2] relates to Sprague-Dawley rats. The experiment in a line: Histological test of the soles (hematoxylin eosin). It is filed as in vivo. As to conditions: 4 hours after administration, FIG. 3. The text has this: Four (4) hours after the above described administration, rats were sacrificed of which soles were removed and their skins were incised and fixated in 10% formalin solution. Then, they were dyed in hematoxylin eosin solution to observe their morphological changes.

For series [3], the system named is Sprague-Dawley rats. Nature of the series: Measuring the thickness of the soles of the hind feet after injection (edema, erythema). Format: in vivo. On the procedure: 0.1 ml of the injectable compositions of the above Table 1, Lipobean (purchased from Ami Pharm Co., Ltd.; positive control) or 2.5% sodium deoxycholate (hereinafter, “DC”; saline solution was used as a solvent) were injected into the soles of the hind feet of 6 week-old, male Sprague-Dawley rats (weight: 170-200 g), respectively. The thickness of the soles was measured by using calipers at 1, 2, 3, and 4 hours after injection, while test performers were not aware of the order or the purpose of tests (i.e. blind study).

In another series the test system is Prostaglandin E2 (PGE2). Nature of the series: PGE2 Assay on hind feet tissue samples. Format: in vivo, mice. Particulars: FIG. 7. On the procedure: Prostaglandin E2 (PGE2) in the hind feet tissue samples of test animals in phosphatidylcholine (PC)-containing injection-administered test groups and sodium deoxycholate (DC)-administered group in various concentrations (PC 2.5%, PC 5%, DC 2.5%, PC 5%+DC 2.5%) was measured with PGE2 Assay (R&D System Inc., Minneapolis, USA). During cultivation, PGE2s in the hind feet tissue samples bound competitively with horse radish peroxidase (HRP)-labeled PGE2 to their mouse monoclonal antibodies. Unbound materials were removed by using washing buffer, while substrate solution was added to each well and left at room temperature with sunlight blocked. Then, stop solution was added, followed by measuring absorption value at 450 nm.

Another series relates to adipocytes. The experiment in a line: Observation of adipocytes in abdominal subcutaneous fats (H&E, optical microscope). It is filed as in vivo, Albino C57BL/6 mice. Particulars: 0.2 ml s.c. into abdomen of obese mice, FIG. 9. As for the experimental part: as §1
The abdomen of the sacrificed mice was incised, followed by rapid extraction of subcutaneous fats and their fixation in 4% formaldehyde solution. After fixation, washing & dehydrating were conducted and treated with paraffin solution to prepare paraffin blocks. Then, those paraffin blocks were thin-sliced in the thickness of 4 μm which were then dyed with hematoxylin & eosin for an optical microscopic observation.
The size of adipocytes in the saline control group and the PC injection-administered group were measured.

For sodium deoxycholate [DC 2.5%], the “Tissue necrosis at the injected area (visual inspection)” value in the series on Albino C57BL/6 mice (listed as 2.5% DC) was “severe necrosis with perforation in the skin”; in the series with Albino C57BL/6 mice (listed as DC), “severe tissue necrosis with perforation and fibrosis”. Also, in the series with Albino C57BL/6 mice (0.2 ml s.c. into abdomen), the “Fibrosis (autopsy)” value was “fibrosis was spread to the surrounding tissues”. Besides, the “MPO activity in hind feet tissue” value in series [1] is “overall higher MPO activity”. For the same substance, the “Edema and neutrophils in sole tissue (histology)” value in the series with Sprague-Dawley rats [2] is “both edema and neutrophils”. For the same substance, the “Measurement of the thickness of the feet” value in the series with Sprague-Dawley rats [3] (0 h, 0.1 ml injected into soles of hind feet, calipers) was 0.324; in the series with Sprague-Dawley rats [3] (1 h after injection, 0.1 ml into soles of hind feet), 0.720; in the series with Sprague-Dawley rats [3] (2 h after injection, 0.1 ml into soles of hind feet), 0.706; in the series on Sprague-Dawley rats [3] (3 h after injection, 0.1 ml into soles of hind feet), 0.682; with Sprague-Dawley rats [3] (4 h after injection, 0.1 ml into soles of hind feet), 0.625. Further, in the series on Prostaglandin E2 (PGE2), the “Level of PGE2 relative to phosphatidylcholine (PC)-administered test groups” value was not below 2 times. Besides, the “Inflammation in abdominal subcutaneous fat (histology)” value with adipocytes is listed as “greater degree of inflammation than other groups”. In addition, in the series on adipocytes, the “Lipolysis in abdominal subcutaneous fat (histology)” value is on record as “Almost no lipolysis effect”.
